Measurements from paper PMC12474757, “Paving the way for future PSMA inhibitors: insights from comparative preclinical evaluations of structure modifications” (EJNMMI Radiopharmacy and Chemistry, 2025).
Where “and” joins values, the source holds several entries; their conditions need not be identical. Equal values may be shown once.

Tests used:
human plasma proteins = experiment: Binding to human plasma proteins; type: in vitro ADME; details: for Protein binding (%): human plasma, 37 °C, n = 2; for Binding rate to human plasma proteins: overall statement, incubation up to 120 min
Procedure: Binding to human plasma proteins was determined following this procedure: 10 µL of the ⁶⁸Ga-P15 with radioactivity of 45 kBq/100 µL was mixed with 190 µL of human plasma. The sample was then incubated at 37 °C. After 0, 30, 60 and 120 min 25 µL of the sample was collected, applied to the appropriate column and centrifuged at 2000 g for 2 minutes. The radioactivity of the samples was then measured using a gamma counter 2480 Wizard^2 (PerkinElmer, Waltham, MA, USA), and then the binding to plasma proteins was calculated using the following formula % plasma protein binding = (Aelution/Atotal)×100. The same procedure was applied when determining binding to plasma proteins of ⁶⁸Ga-P16, ⁶⁸Ga-P19, and ⁶⁸Ga-PSMA-617.

[1] = Stability in human plasma/serum (radiochemical purity by HPLC); type: in vitro ADME; details: for Stability in human serum (%): radiochemical purity, 37 °C, n = 1
Procedure: (§1) Quality control, i.e. radiochemical purity, of the ^68Ga-labelled PSMA inhibitors was evaluated by analytical high performance liquid chromatography (HPLC; Dionex UltiMate 3000, Thermo Scientific, Waltham, Massachusetts, USA) using the following equipment: ACE 3 C18 column; 150 × 3 mm, 3 μm (Advanced Chromatography Technologies Ltd, Aberdeen, UK), with gradient elution A: H2O/acetonitrile (ACN); B:0.1% trifluoroacetic acid (TFA)/H2O: 0–3 min, 0% ACN; 3–10 min, 0 − 50% ACN; 10–13 min, 50 − 80% ACN; 13–15 min, 80–0% ACN, for 15 min at a flow rate of 1 mL/min. Radiometric detection was performed using a GABI Star radiodetector (Raytest GmbH, Straubenhardt, Germany) and for chromatogram quantification Chromatography Data System (CDS) - Chromeleon software (Thermo Scientific, USA) was used. The actual sample injection was performed using a Hamilton microinjector (Hamilton, USA).
Plasma stability was determined as follows. To 100 µL of ⁶⁸Ga-P15 with radioactivity of 45 kBq/100 µL, 400 µL of human plasma was added and mixed. The mixture was incubated at 37 °C and 100 µL samples were taken at 30, 60 and 120 min. These samples were then mixed with 200 µL of acetonitrile and placed on a shaker for 1 min. The sample was then centrifuged at 15,000 rpm for 3 min. After centrifugation, the supernatant was collected for radiochemical purity analysis by HPLC. The same procedure was applied when determining plasma stability of ⁶⁸Ga-P16, ⁶⁸Ga-P19, and ⁶⁸Ga-PSMA-617.

[2] = Radiochemical stability in physiological pH water environment; type: physicochemical; details: radiochemical purity, pH 7, 37 °C, n = 1
Procedure: as §1
Radiochemical stability in a physiological pH water environment was determined as follows: 100 µL of acetate buffer (1.1 mol/L) was added to the labelled preparation and the pH was then checked with a pH indicator paper to be 7. The mixture was further incubated at 37 °C and after 30, 60 and 120 min, 10 µL aliquot was used for HPLC analysis of radiochemical purity.

[3] = test system: LNCaP tumour-bearing mice; experiment: Ex vivo biodistribution in LNCaP tumour-bearing mice; set-up: species or system SCID mice
Procedure: The eight-week-old male SCID mice (Charles River, Massachusetts, USA) were used to generate the mouse tumour model. The implantation of 10 million LNCaP cells (ATCC, Virginia, USA) per mouse in a 1:1 mixture of Matrigel matrix (Corning, New York, USA) was performed subcutaneously behind the right shoulder of the mouse. Tumours of adequate size, representing a volume of 100–300 mm³, were observed after five to six weeks.
Ex vivo biodistribution of PSMA inhibitors in tumor-bearing mice was conducted as follows. Concisely, 30 µL of acetate buffer was added to the each ⁶⁸Ga -labelled inhibitor, namely: ⁶⁸Ga-P15, ⁶⁸Ga-P16, ⁶⁸Ga-P19, and ⁶⁸Ga-PSMA-617 to achieve physiological pH. Mice were r.o. injected with 100 µL of labelled inhibitor (2 MBq, approximately 0.5 µg of the inhibitor). Animals were divided into two groups for biodistribution studies at 1 and 2 h after administration of the respective ^68Ga-labelled PSMA inhibitor. The animals were sacrificed and autopsied after euthanasia, and organs: spleen, pancreas, stomach, intestine, kidney, liver, heart, lung, muscle, bone, and tumour were collected in scintillation vials. The vials containing the samples were weighed and measured in a Wizard2 gamma counter (PerkinElmer, USA). The measured values were then adjusted for radionuclide decay and expressed as a percentage of administered dose per gram of organ (%ID/g). The NanoScan® hybrid Positron Emission Tomography/Computed Tomography (PET/CT) machine (Mediso, Budapest, Hungary) was used for in vivo imaging specifically whole-body helical PET/CT scans. Imaging settings were: single field of view (FOV) PET scans (98.5 mm) which took 10 min for each mouse and helical CT scans (50 kVp/980 µA, 720 projections) both took place one hour after the administration. Each mouse received an injection of approximately 10 MBq of tested radiopharmaceutical. To prevent the mice’s eyes from drying out during anaesthesia eye ointment (Ophthalmo-Azulen, Zentiva, CR) was applied. Image reconstruction was performed using Mediso Tera-Tomo 3D PET iterative reconstruction (Mediso Medical Imaging Systems, Budapest, Hungary). Both reconstruction and data evaluation were performed in Mediso InterView FUSION software (Mediso Medical Imaging Systems, Budapest, Hungary) (Mediso, Budapest, Hungary). Final images were normalised to injected activity and animal weight. All organs with radiopharmaceutical accumulation were roughly delineated on the images, while their SUVmax value was recorded. The SUV41% (Standardized Uptake Value 41%) was then calculated as 41% of each SUVmax value of given hotspot and the ROI was delineated based on this value (Boellaard et al. [2015]). All images were exported in maximum intensity projection (MIP) mode. The results from the ex vivo biodistribution study were subjected to statistical analysis, namely unpaired Student’s t-test (Microsoft Excel 365, USA).

[4] = one-hour p.i., mean ± SD, n = 4

| Protein binding (%) (human plasma proteins; incubation time 0 min) | Protein binding (%) (human plasma proteins; incubation time 30 min) | Protein binding (%) (human plasma proteins; incubation time 60 min) | Protein binding (%) (human plasma proteins; incubation time 120 min) | Stability in human serum (%) ([1]; incubation time 30 min) | Stability in human serum (%) ([1]; incubation time 60 min) | Stability in human serum (%) ([1]; incubation time 120 min) | Stability in Physiological pH (%) ([2]; incubation time 0 min) | Stability in Physiological pH (%) ([2]; incubation time 30 min) | Stability in Physiological pH (%) ([2]; incubation time 60 min) | Stability in Physiological pH (%) ([2]; incubation time 120 min) | tumour-to-muscle ratio of [68Ga]Ga-PSMA-617 relative to that of the inhibitor ([3]; one-hour p.i.) | Accumulation in the tumour ([3]; two-hours p.i., n = 4) | Binding rate to human plasma proteins (human plasma proteins) [%] | Compound | further results |
| --- | --- | --- | --- | --- | --- | --- | --- | --- | --- | --- | --- | --- | --- | --- | --- |
| 56.6% | 59% and 58.8% | 58% and 57.7% | 58% and 58.2% | 99.3 | 99.8 | 99.9 | 99.8 | 99.5 | 99.5 | 99.6 | more than 1.6 times | 2.0 % ID/g |  | O=C([O-])CN1CCN(CC(=O)[O-])CCN(CC(=O)NCc2ccc(C(=O)N[C@H](C(=O)NCCCC[C@H](NC(=O)N[C@@H](CCC(=O)O)C(=O)O)C(=O)O)C(c3ccccc3)c3ccccc3)cc2)CCN(CC(=O)[O-])CC1.[68Ga+3] [[^68Ga]Ga-P19] | tumour-to-blood ratio, times higher than [68Ga]Ga-PSMA-617 ([3]; one hour after administration): more than 1.5 times; level in the kidney, times lower compared to [68Ga]Ga-PSMA-617 ([3]; one hour after administration, p < 0.05): up to 7 times; tumour-to-blood ratio [3, 4]: 9.0 ± 2.3; tumour-to-kidney ratio [3, 4]: 0.85 ± 0.36; Accumulation in the tumour ([3]; one-hour p.i., n = 4): 3.5 % ID/g; tumour-to-kidney ratio ([3]; two hours post injection, mean ± SD, n = 4): 0.85 ± 0.02 |
| 10% and 10.2% | 10.9% | 10.8% | 13% and 13.4% | 98.8 | 98.3 | 97.3 | 99.3 | 99.1 | 99.3 | 99.3 | more than twice |  | ≤ 40 | O=C([O-])CN1CCN(CC(=O)[O-])CCN(CC(=O)N[C@H]2CC[C@H](NC(=O)[C@H](Cc3ccc4ccccc4c3)NC(=O)CC[C@H](NC(=O)N[C@@H](CCC(=O)O)C(=O)O)C(=O)O)CC2)CCN(CC(=O)[O-])CC1.[68Ga+3] [[^68Ga]Ga-P16] | Radiochemical purity in human blood serum/plasma ([1]; 37 °C, 30, 60 and 120 min): above 97%; Accumulation in the spleen ([3]; one-hour p.i., n = 4): 7.7 % ID/g; Accumulation in the spleen ([3]; two-hours p.i., n = 4): 9.6 % ID/g |
| 26.7% | 27.0% | 29% and 29.4% | 40% and 39.9% | 98.9 | 99.8 | 99.4 | 99.0 | 98.8 | 98.7 | 99.2 | ~7.5 times | 0.5% | ≤ 40 | O=C([O-])CN1CCN(CC(=O)[O-])CCN(CC(=O)N[C@H]2CC[C@H](NC(=O)[C@@H](Cc3ccc4ccccc4c3)NC(=O)CC[C@H](NC(=O)N[C@@H](CCC(=O)O)C(=O)O)C(=O)O)CC2)CCN(CC(=O)[O-])CC1.[68Ga+3] [[^68Ga]Ga-P15] | tumour-to-muscle ratio, fold lower than [68Ga]Ga-PSMA-617 ([3]; Fig. 5): more than 7 fold; tumour uptake, fold lower than [68Ga]Ga-P16 ([3]; one-hour p.i.): more than 5 fold; tumour uptake, fold lower than [68Ga]Ga-P16 ([3]; two-hours p.i.): up to 10 fold |
